# Measurements: patent publication US20250205344A1, “2,4-DIOXOTETRAHYDROPYRIMIDINYL DERATIVES AS DEGRONS IN PROTACS” (GLAXOSMITHKLINE INTELLECTUAL PROPERTY DEVELOPMENT LIMITED, priority 2022, published 2025)
# Columns and labels:
# [1] = target: T1, IRAK4 (Interleukin 1 Receptor Associated Kinase 4) (Homo sapiens, UniProt Q9NWZ3); assay: IRAK4 Degradation Assay (Nano-Glo HiBiT); assay type: cell-based; conditions: HiBiT-tagged IRAK4 in HeLa cells, 18 h
# T1 construct: the IRAK4 gene was modified, using CRISPR/Cas9 editing, so the expressed IRAK4 protein included an 11 amino acid HiBiT tag; endogenous in cells; host or cells: clonal HeLa line, IRAK4 gene edited by CRISPR/Cas9 (heterozygous)
# T1 sequence (Q9NWZ3 1-460): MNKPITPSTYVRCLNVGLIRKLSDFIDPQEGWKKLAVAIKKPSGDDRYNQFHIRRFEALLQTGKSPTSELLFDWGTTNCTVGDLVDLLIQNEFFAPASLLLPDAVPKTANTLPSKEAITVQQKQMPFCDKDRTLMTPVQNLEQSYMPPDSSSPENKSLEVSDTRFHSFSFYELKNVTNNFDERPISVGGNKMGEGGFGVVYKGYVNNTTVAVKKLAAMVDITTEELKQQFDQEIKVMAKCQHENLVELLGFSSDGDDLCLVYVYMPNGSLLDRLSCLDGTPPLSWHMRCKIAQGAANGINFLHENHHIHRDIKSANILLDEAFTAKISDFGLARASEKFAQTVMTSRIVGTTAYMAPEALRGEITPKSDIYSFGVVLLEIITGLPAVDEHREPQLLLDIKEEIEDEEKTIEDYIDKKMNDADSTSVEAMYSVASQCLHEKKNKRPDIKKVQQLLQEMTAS
# Source text: Degradation of IRAK4 (Interleukin 1 Receptor Associated Kinase 4) protein in Hela cells treated with PROTACs was quantified using the Nano-Glo® HiBiT Lytic Detection System (Promega) in 384 well assay plate format. A clonal HeLa cell line was first established in which the IRAK4 gene was modified, using CRISPR/Cas9 editing, so the expressed IRAK4 protein included an 11 amino acid HiBiT tag at it's amino-terminus. The cell lines were heterozygotic for the HiBiT modification. Cells were cryopreserved in aliquots in 90% foetal bovine serum (FBS), 10% DMSO and stored at −150° C. 10 mM DMSO stock solutions of PROTACs were prepared and diluted across an 11 concentration, 3 fold increment range, and 25 nL dispensed into a white opaque bottomed 384 well assay plate (Thermofisher) using an acoustic ECHO dispenser (Labcyte). […] The intensity of luminescence was measured using a PHERAstar microplate reader (BMG Labtech) and the % IRAK4 protein remaining in each well calculated by normalising the raw luminescence value to the above control wells. Parameters corresponding to the potency and efficacy estimates of the PROTACs were obtained from these normalised luminescence values using software (IDBS ActivityBase). […]
# RIPK2 = target: T2, RIPK2 (Homo sapiens, UniProt O43353); assay: RIPK2 Degradation Assay (Nano-Glo HiBiT); assay type: cell-based; conditions: HiBiT-tagged RIPK2 in HEK 293 cells, 18 h
# T2 construct: the RIPK2 gene was modified, using CRISPR/Cas9 editing, so the expressed RIPK2 protein included an 11 amino acid HiBiT tag; endogenous in cells; host or cells: clonal HEK 293-derived line, RIPK2 gene edited by CRISPR/Cas9 (heterozygous)
# Source text: Degradation of RIPK2 protein in human embryonic kidney (HEK 293) cells treated with PROTACs was quantified using the Nano-Glo® HiBiT Lytic Detection System (Promega) in 384 well assay plate format. A clonal HEK 293 derived cell line was first established in which the RIPK2 gene was modified, using CRISPR/Cas9 editing, so the expressed RIPK2 protein included an 11 amino acid HiBiT tag at it's amino-terminus. The cell lines were heterozygotic for the HiBIT modification. Cells were cryopreserved in aliquots in 90% foetal bovine serum (FBS), 10% DMSO and stored at −150° C. 10 mM DMSO stock solutions of PROTACs were prepared and diluted across an 11 concentration, 3 fold increment range, and 25 nL dispensed into a white opaque bottomed 384 well assay plate (Thermofisher) using an acoustic ECHO dispenser (Labcyte). For the assay, a cryopreserved vials of cells was rapidly thawed and suspended in 30 mL of assay medium (FluoroBrite™ DMEM supplemented with 10% heat inactivated FBS, penicillin 50 U/mL and streptomycin 50 ug/mL (Thermofisher)). The cell suspension was centrifuged at 400 g for 5 min and the pellet resuspended in assay medium. 25 μL of cell suspension containing 10,000 cells was dispensed into each well of the assay plate containing the test compounds, which was then incubated for 18 h at 37° C./5% CO2. Control wells were included on each assay plate, with assay medium without cells being the no RIPK2 remaining 100% effect control, and cells treated with DMSO vehicle only, without PROTAC, the 0% effect control. 25 μL of Nano-Glo® HiBiT lysis buffer supplemented with LgBiT protein and Nano-Glo® substrate (Promega) was added to each well and the plate shaken at 500 rpm for 10 min at room temperature. The intensity of luminescence was measured using a PHERAstar microplate reader (BMG Labtech) and the % RIPK2 protein remaining in each well calculated by normalising the raw luminescence value to the above control wells. Parameters corresponding to the potency and efficacy estimates of the PROTACs were obtained from these normalised luminescence values using software (IDBS ActivityBase). These included the DC50 and the Dmax estimates. Two versions of the DC50, called relative DC50 and absolute DC50, were typically generated. These are the inflection point of a fitted 4 parameter sigmoidal response curve and the interpolated concentration of PROTAC corresponding to 50% of the protein being degraded, respectively. The Dmax parameter was the maximum experimentally observed degradation and the asymptote max parameter the fitted response curve asymptote maximum.
# T2 sequence (O43353 whole entry): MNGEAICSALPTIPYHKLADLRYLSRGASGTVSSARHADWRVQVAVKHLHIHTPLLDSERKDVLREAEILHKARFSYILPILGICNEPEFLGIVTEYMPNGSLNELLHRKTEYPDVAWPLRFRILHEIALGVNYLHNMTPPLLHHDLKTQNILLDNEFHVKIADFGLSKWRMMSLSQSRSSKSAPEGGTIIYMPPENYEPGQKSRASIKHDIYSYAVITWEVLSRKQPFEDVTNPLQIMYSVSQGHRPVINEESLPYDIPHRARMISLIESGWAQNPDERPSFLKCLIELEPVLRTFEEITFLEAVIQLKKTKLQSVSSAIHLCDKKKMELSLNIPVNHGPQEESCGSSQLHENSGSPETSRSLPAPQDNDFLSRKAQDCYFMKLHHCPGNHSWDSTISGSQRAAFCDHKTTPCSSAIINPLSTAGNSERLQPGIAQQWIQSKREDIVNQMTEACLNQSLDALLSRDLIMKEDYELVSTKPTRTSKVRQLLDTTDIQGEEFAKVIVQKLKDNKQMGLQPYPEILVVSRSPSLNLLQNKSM
SMILES,mean asymptote max [1] [%],mean relative pDC50 [1],Mean asymptote max (%) (RIPK2),mean relative pDC50 (RIPK2)
"CC(C)n1ccc2c(N3CCC(=O)NC3=O)cc(C(=O)NCCOCCOCCN(C)C(=O)c3ccc(-n4cc(NC(=O)c5coc(-c6ccnc(NCC7CC7)c6)n5)c(C(F)F)n4)cc3)cc21 [Example I1, 2-(2-((Cyclopropylmethyl)amino)pyridin-4-yl)-N-(3-(difluoromethyl)-1-(4-((2-(2-(2-(4-(2,4-dioxotetrahydropyrimidin-1(2H)-yl)-1-isopropyl-1H-indole-6-carboxamido)ethoxy)ethoxy)ethyl)(methyl)carbamoyl)phenyl)-1H-pyrazol-4-yl)oxazole-4-carboxamide]",96,8.1,,
"CC(C)n1ccc2c(N3CCC(=O)NC3=O)cc(C(=O)NCCOCCOCCOc3cc4nccc(Nc5ccc6scnc6c5)c4cc3S(=O)(=O)C(C)(C)C)cc21 [Example R3, N-(2-(2-(2-((4-(Benzo[d]thiazol-5-ylamino)-6-(tert-butylsulfonyl)quinolin-7-yl)oxy)ethoxy)ethoxy)ethyl)-4-(2,4-dioxotetrahydropyrimidin-1(2H)-yl)-1-isopropyl-1H-indole-6-carboxamide]",,,92,8.3
"CC(C)(C)S(=O)(=O)c1cc2c(Nc3ccc4scnc4c3)ccnc2cc1OCCCCCCCC(=O)N1CCC(n2ccc3c(N4CCC(=O)NC4=O)cccc32)CC1 [Example R1, 1-(1-(1-(8-((4-(Benzo[d]thiazol-5-ylamino)-6-(tert-butylsulfonyl)quinolin-7-yl)oxy)octanoyl)piperidin-4-yl)-1H-indol-4-yl)dihydropyrimidine-2,4(1H,3H)-dione]",,,96,8.5
